Experiment: Tolerability after i.p. injection
Format: in vivo
Settings: i.p. injection at 100 mg/kg animal body
From the text: Compounds of formula I are well tolerated at dosages required for use in accordance with the present invention.

C[C@@H](O)[C@@H]1NC(=O)[C@H](CCCCN)NC(=O)[C@@H](Cc2c[nH]c3ccccc23)NC(=O)[C@H](Cc2ccccc2)NC(=O)[C@@H](NC(=O)[C@H](N)Cc2ccccc2)CSSC[C@@H](C(=O)N[C@H](CO)[C@@H](C)O)NC1=O [octreotide]
increase in GOT: no increase in GOT | lethality: no increase in GOT or any lethality
